# From US4378344A, “Method and apparatus for performing multiple, simultaneous in vitro diagnostic tests using a solid phase system” (priority 1979, dated 1983)
# Like-named read-outs stand apart in the source and are kept apart here.
# Assays:
# anti-digoxin [1] = details: clinical sample
# Method: The same series of assays were conducted as described in Example 6 and expressed in the same manner.
# anti-digoxin [2] = experiment: simultaneous assay: 125I-digoxin bound to anti-digoxin coated tube (Example 6); format: binding, rabbit
# Method: (§1) Digoxin and thyroxin were utilized as the antigens. 1.1 ml of 0.01 M PBS at pH 7.4 and also containing 5 mg/ml thimersol was added to the appropriate tubes. 50 μl of a digoxin solution and 50 μl of a T4 solution were added to each tube.
# (§2) The following series of assays were conducted.
# (A) anti-digoxin coated tube;
# (C) anti-digoxin coated tube and uncoated stick; and,
# (§3) (D) anti-digoxin coated tube and anti-T4 coated stick.
# (§4) The remainder of the values are based on these two values.
# anti-T4 [3] = experiment: simultaneous assay: 125I-thyroxin bound to anti-T4 coated stick (Example 6); format: binding, rabbit
# Method: as §1, §2
# (B) uncoated tube and anti-T4 coated stick
# as §3, §4
# anti-T4 [4] = experiment: simultaneous assay in clinical serum sample: 125I-thyroxin bound to anti-T4 coated stick (Example 7); format: binding, rabbit
molecule,measurement,setting,value
^125 I-Digoxin,% ^125 I-Digoxin Bound,"anti-digoxin [1]; tube 1 (no 125I-T4), series A, no stick, set as 100%",100%
same,% ^125 I-Digoxin Bound,"anti-digoxin [1]; tube 1 (no 125I-T4), series C, uncoated stick",95%
same,% ^125 I-Digoxin Bound,"anti-digoxin [1]; tube 1 (no 125I-T4), series D, anti-T4 stick",114%
same,% ^125 I-Digoxin Bound,"anti-digoxin [1]; tube 3 (with 125I-T4), series A, no stick",98%
same,% ^125 I-Digoxin Bound,"anti-digoxin [1]; tube 3 (with 125I-T4), series C, uncoated stick",135%
same,% ^125 I-Digoxin Bound,"anti-digoxin [1]; tube 3 (with 125I-T4), series D, anti-T4 stick",116%
same,% ^125 I-Digoxin Bound,"anti-digoxin [2]; tube 1 (digoxin 0, T4 0 ng/ml; no 125I-T4), series A, no stick, set as 100%",100%
same,% ^125 I-Digoxin Bound,"anti-digoxin [2]; tube 1 (digoxin 0, T4 0 ng/ml; no 125I-T4), series C, uncoated stick",118%
same,% ^125 I-Digoxin Bound,"anti-digoxin [2]; tube 1 (digoxin 0, T4 0 ng/ml; no 125I-T4), series D, anti-T4 stick",126%
same,% ^125 I-Digoxin Bound,"anti-digoxin [2]; tube 3 (digoxin 0, T4 0 ng/ml; with 125I-T4), series A, no stick",98%
same,% ^125 I-Digoxin Bound,"anti-digoxin [2]; tube 3 (digoxin 0, T4 0 ng/ml; with 125I-T4), series C, uncoated stick",109%
same,% ^125 I-Digoxin Bound,"anti-digoxin [2]; tube 3 (digoxin 0, T4 0 ng/ml; with 125I-T4), series D, anti-T4 stick",121%
same,% ^125 I-Digoxin Bound,"anti-digoxin [2]; tube 4 (digoxin 0, T4 30 ng/ml; no 125I-T4), series A, no stick",97%
same,% ^125 I-Digoxin Bound,"anti-digoxin [2]; tube 4 (digoxin 0, T4 30 ng/ml; no 125I-T4), series C, uncoated stick",111%
same,% ^125 I-Digoxin Bound,"anti-digoxin [2]; tube 4 (digoxin 0, T4 30 ng/ml; no 125I-T4), series D, anti-T4 stick",109%
same,% ^125 I-Digoxin Bound,"anti-digoxin [2]; tube 6 (digoxin 0, T4 30 ng/ml; with 125I-T4), series A, no stick",100%
same,% ^125 I-Digoxin Bound,"anti-digoxin [2]; tube 6 (digoxin 0, T4 30 ng/ml; with 125I-T4), series C, uncoated stick",104%
same,% ^125 I-Digoxin Bound,"anti-digoxin [2]; tube 6 (digoxin 0, T4 30 ng/ml; with 125I-T4), series D, anti-T4 stick",110%
same,% ^125 I-Digoxin Bound,"anti-digoxin [2]; tube 7 (digoxin 4, T4 0 ng/ml; no 125I-T4), series A, no stick",66%
same,% ^125 I-Digoxin Bound,"anti-digoxin [2]; tube 7 (digoxin 4, T4 0 ng/ml; no 125I-T4), series C, uncoated stick",76%
same,% ^125 I-Digoxin Bound,"anti-digoxin [2]; tube 7 (digoxin 4, T4 0 ng/ml; no 125I-T4), series D, anti-T4 stick",68%
same,% ^125 I-Digoxin Bound,"anti-digoxin [2]; tube 9 (digoxin 4, T4 0 ng/ml; with 125I-T4), series A, no stick",69%
same,% ^125 I-Digoxin Bound,"anti-digoxin [2]; tube 9 (digoxin 4, T4 0 ng/ml; with 125I-T4), series C, uncoated stick",77%
same,% ^125 I-Digoxin Bound,"anti-digoxin [2]; tube 9 (digoxin 4, T4 0 ng/ml; with 125I-T4), series D, anti-T4 stick",70%
same,% ^125 I-Digoxin Bound,"anti-digoxin [2]; tube 10 (digoxin 4, T4 30 ng/ml; no 125I-T4), series A, no stick",62%
same,% ^125 I-Digoxin Bound,"anti-digoxin [2]; tube 10 (digoxin 4, T4 30 ng/ml; no 125I-T4), series C, uncoated stick",76%
same,% ^125 I-Digoxin Bound,"anti-digoxin [2]; tube 10 (digoxin 4, T4 30 ng/ml; no 125I-T4), series D, anti-T4 stick",69%
same,% ^125 I-Digoxin Bound,"anti-digoxin [2]; tube 12 (digoxin 4, T4 30 ng/ml; with 125I-T4), series A, no stick",63%
same,% ^125 I-Digoxin Bound,"anti-digoxin [2]; tube 12 (digoxin 4, T4 30 ng/ml; with 125I-T4), series C, uncoated stick",73%
same,% ^125 I-Digoxin Bound,"anti-digoxin [2]; tube 12 (digoxin 4, T4 30 ng/ml; with 125I-T4), series D, anti-T4 stick",68%
C[C@H]1O[C@@H](O[C@H]2[C@@H](O)C[C@H](O[C@H]3[C@@H](O)C[C@H](O[C@H]4CC[C@@]5(C)[C@H](CC[C@@H]6[C@@H]5C[C@@H](O)[C@]5(C)[C@@H](C7=CC(=O)OC7)CC[C@]65O)C4)O[C@@H]3C)O[C@@H]2C)C[C@H](O)[C@@H]1O [digoxin],digoxin binding to the anti-digoxin coated tube,"anti-digoxin [2]; when T4, 125I-T4 or both are present",no significant difference
same,digoxin binding to the anti-digoxin coated tube,anti-digoxin [2]; when an uncoated stick or an anti-T4 coated stick is also present,no significant difference
"N[C@@H](Cc1cc(I)c(Oc2cc(I)c(O)c([125I])c2)c(I)c1)C(=O)O [^125 I-T4, ^125 I-Thyroxin]",% ^125 I-Thyroxin Bound,"anti-T4 [3]; stick 2 (digoxin 0, T4 0 ng/ml; no 125I-digoxin), series B, uncoated tube, set as 100%",100%
same,% ^125 I-Thyroxin Bound,"anti-T4 [3]; stick 2 (digoxin 0, T4 0 ng/ml; no 125I-digoxin), series D, anti-digoxin tube",96%
same,% ^125 I-Thyroxin Bound,"anti-T4 [3]; stick 3 (digoxin 0, T4 0 ng/ml; with 125I-digoxin), series B, uncoated tube",106%
same,% ^125 I-Thyroxin Bound,"anti-T4 [3]; stick 3 (digoxin 0, T4 0 ng/ml; with 125I-digoxin), series D, anti-digoxin tube",106%
same,% ^125 I-Thyroxin Bound,"anti-T4 [3]; stick 5 (digoxin 0, T4 30 ng/ml; no 125I-digoxin), series B, uncoated tube",81%
same,% ^125 I-Thyroxin Bound,"anti-T4 [3]; stick 5 (digoxin 0, T4 30 ng/ml; no 125I-digoxin), series D, anti-digoxin tube",79%
same,% ^125 I-Thyroxin Bound,"anti-T4 [3]; stick 6 (digoxin 0, T4 30 ng/ml; with 125I-digoxin), series B, uncoated tube",92%
same,% ^125 I-Thyroxin Bound,"anti-T4 [3]; stick 6 (digoxin 0, T4 30 ng/ml; with 125I-digoxin), series D, anti-digoxin tube",95%
same,% ^125 I-Thyroxin Bound,"anti-T4 [3]; stick 8 (digoxin 4, T4 0 ng/ml; no 125I-digoxin), series B, uncoated tube",101%
same,% ^125 I-Thyroxin Bound,"anti-T4 [3]; stick 8 (digoxin 4, T4 0 ng/ml; no 125I-digoxin), series D, anti-digoxin tube",100%
same,% ^125 I-Thyroxin Bound,"anti-T4 [3]; stick 9 (digoxin 4, T4 0 ng/ml; with 125I-digoxin), series B, uncoated tube",113%
same,% ^125 I-Thyroxin Bound,"anti-T4 [3]; stick 9 (digoxin 4, T4 0 ng/ml; with 125I-digoxin), series D, anti-digoxin tube",108%
same,% ^125 I-Thyroxin Bound,"anti-T4 [3]; stick 11 (digoxin 4, T4 30 ng/ml; no 125I-digoxin), series B, uncoated tube",82%
same,% ^125 I-Thyroxin Bound,"anti-T4 [3]; stick 11 (digoxin 4, T4 30 ng/ml; no 125I-digoxin), series D, anti-digoxin tube",81%
same,% ^125 I-Thyroxin Bound,"anti-T4 [3]; stick 12 (digoxin 4, T4 30 ng/ml; with 125I-digoxin), series B, uncoated tube",92%
same,% ^125 I-Thyroxin Bound,"anti-T4 [3]; stick 12 (digoxin 4, T4 30 ng/ml; with 125I-digoxin), series D, anti-digoxin tube",89%
same,% ^125 I-Thyroxin Bound,"anti-T4 [4]; stick 2 (no 125I-digoxin), series B, uncoated tube, set as 100%",100%
same,% ^125 I-Thyroxin Bound,"anti-T4 [4]; stick 2 (no 125I-digoxin), series D, anti-digoxin tube",102%
same,% ^125 I-Thyroxin Bound,"anti-T4 [4]; stick 3 (with 125I-digoxin), series B, uncoated tube",146%
same,% ^125 I-Thyroxin Bound,"anti-T4 [4]; stick 3 (with 125I-digoxin), series D, anti-digoxin tube",143%
"N[C@@H](Cc1cc(I)c(Oc2cc(I)c(O)c(I)c2)c(I)c1)C(=O)O [T4, thyroxin]",T4 binding to the anti-T4 coated stick,anti-T4 [3]; when an anti-digoxin coated tube is also present,no significant difference
same,T4 binding to the anti-T4 coated stick,"anti-T4 [3]; when digoxin, 125I-digoxin or both are present",no significant difference
